Assay results published in patent US10226453B2, “3-(1H-indol-2-yl)-1H-pyrazolo[4,3-B]pyridines and therapeutic uses thereof” (Samumed, LLC, priority 2015, dated 2019).

What was measured:
Assay type in all cases: cell-based
[1] = system: Wnt activity (Sp5-Luc reporter, SW480 colon carcinoma cells); test: Wnt activity screening assay: Sp5-Luc reporter gene in SW480 colon carcinoma cells; conditions: Homo sapiens; for inhibition at 10 µM: given where EC50 >10 μM, read-out: percent inhibition at 10 μM; for EC50: overnight incubation, 10-point curve from 10 μM
Text: The screening assay for Wnt activity is described as follows. Reporter cell lines can be generated by stably transducing cancer cell lines (e.g., colon cancer) or primary cells (e.g., IEC-6 intestinal cells) with a lentiviral construct that includes a Wnt-responsive promoter driving expression of the firefly luciferase gene.
SW480 colon carcinoma cells were transduced with a lentiviral vector expressing luciferase with a human Sp5 promoter consisting of a sequence of eight TCF/LEF binding sites. SW480 cells stably expressing the Sp5-Luc reporter gene and a hygromycin resistance gene were selected by treatment with 150 μg/mL of hygromycin for 7 days. These stably transduced SW480 cells were expanded in cell culture and used for all further screening activities. Each compound was dissolved in DMSO as a 10 mM stock and used to prepare compound source plates. Serial dilution (1:3, 10-point dose-response curves starting from 10 μM) and compound transfer was performed using the ECHO 550 (Labcyte, Sunnyvale, Calif.) into 384-well white solid bottom assay plates (Greiner Bio-One) with appropriate DMSO backfill for a final DMSO concentration of 0.1%. For Sp5-Luc reporter gene assays, the cells were plated at 4,000 cells/well in 384-well plates with medium containing 1% fetal bovine serum and incubated overnight at 37° C. and 5% CO2. Following incubation, 20 μl of BrightGlo luminescence reagent (Promega) was added to each well of the 384-well assay plates. The plates were placed on an orbital shaker for 2 min and then luminescence was quantified using the Envision (Perkin Elmer) plate reader. Readings were normalized to DMSO only treated cells, and normalized activities were utilized for EC50 calculations using the dose-response log (inhibitor) vs. response-variable slope (four parameters) nonlinear regression feature available in GraphPad Prism 5.0 (or Dotmatics). For EC50 of >10 μM, the percent inhibition at 10 μM is provided.

SW480 colon cancer cells = test: Cell viability assay (CellTiter-Blue), SW480 colon cancer cells; conditions: Homo sapiens, 96 h, four days, CellTiter-Blue
Method: Representative compounds were screened using the following assay procedure to assess the effect on cell viability as described below.
Each compound was dissolved in DMSO as a 10 mM stock and used to prepare compound source plates. Serial dilution (1:3, 8-point dose-response curves from 10 μM to 0.0045 μM) and compound transfer was performed using the ECHO 550 (Labcyte, Sunnyvale, Calif.) into 96-well clear bottom, black-walled plates (Corning—Costar).
Approximately 2×10^3 SW480 colon cancer cells were seeded into each well and allowed to incubate in the presence or absence of compound for four days at 37° C./5% CO2. Eight replicates of DMSO-treated cells served as controls and cells treated with compound were performed in duplicate.
After incubation, 20 μL of CellTiter-Blue (Promega) was added to each well allowed to incubate for approximately 3 hours. This reagent was a buffered solution which contains resazurin, metabolically active cells were able to reduce rezarurin (blue) into resorufin (pink) which was highly fluorescent. This measured fluorescence was used as a readout for cell viability.
After incubation, the plates were read at Ex 560 nm Em 590 nm (Cytation 3, BioTek). Dose-response curves were generated and EC50 concentration values were calculated using non-linear regression curve fit in the GraphPad Prism (San Diego, Calif.) or Dotmatics' Studies Software (Bishops Stortford, UK). For EC50 of >10 μM, the percent inhibition at 10 μM is provided.

[2] = system: primary human fibroblasts derived from IPF patients (LL29 cells) treated with TGF-β1; test: Inhibition of the fibrotic process: αSMA staining in TGF-β1 treated primary human fibroblasts from IPF patients (LL29 cells); conditions: Fibroblast, 96 h, TGF-β1 20 ng/mL, 4 days, % αSMA positive cells
Text: Representative compounds were screened using primary human fibroblasts (derived from IPF patients) treated with TGF-β1 to determine their ability to inhibit the fibrotic process.
Primary human fibroblasts derived from IPF patients (LL29 cells) [^1Xiaoqiu Liu, et. al., “Fibrotic Lung Fibroblasts Show Blunted Inhibition by cAMP Due to Deficient cAMP Response Element-Binding Protein Phosphorylation”, Journal of Pharmacology and Experimental Therapeutics (2005), 315(2), 678-687; ^2Watts, K. L., et. al., “RhoA signaling modulates cyclin D1 expression in human lung fibroblasts; implications for idiopathic pulmonary fibrosis”, Respiratory Research (2006), 7(1), 88] were obtained from American Type Culture Collection (ATCC) and expanded in F12 medium supplemented with 15% Fetal Bovine Serum and Penicillin/Streptomycin.
Each compound was dissolved in DMSO as a 10 mM stock and used to prepare compound source plates. Serial dilution (1:2, 11-point dose-response curves from 10 μM to 1.87 nM) and compound transfer was performed using the ECHO 550 (Labcyte, Sunnyvale, Calif.) into 384-well clear bottom assay plates (Greiner Bio-One) with appropriate DMSO backfill for a final DMSO concentration of 0.1%. LL29 cells are plated at 1,500 cells/well in 80 μL/well F12 medium supplemented with 1% Fetal Bovine Serum. One hour after addition of the cells, TGF-β1 (Peprotech; 20 ng/mL) was added to the plates to induce fibrosis (ref. 1 and 2 above). Wells treated with TGF-β1 and containing DMSO were used as controls. Cells were incubated at 37° C. and 5% CO2 for 4 days. Following incubation for 4 days, SYTOX green nucleic acid stain (Life Technologies [Thermo Fisher Scientific]) was added to the wells at a final concentration of 1 μM and incubated at room temperature for 30 min. Cells were then fixed using 4% formaldehyde (Electron Microscopy Sciences), washed 3 times with PBS followed by blocking and permeabilization using 3% Bovine Serum Albumin (BSA; Sigma) and 0.3% Triton X-100 (Sigma) in PBS. Cells were then stained with antibody specific to α-smooth muscle actin (αSMA; Abcam) (ref. 1 and 2 above) in 3% Bovine Serum Albumin (BSA; Sigma) and 0.3% Triton X-100 (Sigma) in PBS, and incubated overnight at 4° C. Cells were then washed 3 times with PBS, followed by incubation with Alexa Flor-647 conjugated secondary antibody (Life Technologies [Thermo Fisher Scientific]) and DAPI at room temperature for 1 hour. Cells were then washed 3 times with PBS and plates were sealed for imaging. αSMA staining was imaged by excitation at 630 nm and emission at 665 nm and quantified using the Compartmental Analysis program on the CellInsight CX5 (Thermo Scientific). Dead or apoptotic cells were excluded from analysis based on positive SYTOX green staining. % of total cells positive for αSMA were counted in each well and normalized to the average of 11 wells treated with TGF-β1 on the same plate using Dotmatics' Studies Software. The normalized averages (fold change over untreated) of 3 replicate wells for each compound concentration were used to create dose-responses curves and EC50 values were calculated using non-linear regression curve fit in the Dotmatics' Studies Software. For EC50 of >10 μM, the percent inhibition at 10 μM is provided.

IL-6 (THP-1 cells) = test: IL-6 inhibition in LPS-stimulated THP-1 human monocyte cells (HTRF); conditions: LPS 500 ng/mL, 22 hours, IL6 HTRF
Method: Human monocyte cell line (THP-1 cells; Catalog # TIB-202, ATCC, Manassas, Va.) were cultured in Roswell Park Memorial Institute (RPMI) 1640 Medium (Catalog #21870-100, Buffalo, N.Y.) with 1% L-glutamine, 1% HEPES, 1% Sodium Pyruvate, 2% Sodium Bicarbonate supplemented with 100 units/mL penicillin, 50 μg/mL streptomycin, 2-mercaptoethanol (0.05 mM) [basal medium] and 10% fetal bovine serum (Catalog #16140089, Life Technologies, Carlsbad, Calif.) at 37° C. and 5% CO2.
THP-1 cells were cultured in basal media with 1% FBS for 24 hours before the start of the assay. Each compound was dissolved in DMSO as a 10 mM stock and used to prepare compound source plates. Serial dilution (1:3, 10-point dose-response curves starting from 10 μM) and compound transfer was performed using the ECHO 550 (Labcyte, Sunnyvale, Calif.) into 384-well white low volume assay plates (Greiner Bio-One) with appropriate DMSO backfill for a final DMSO concentration of 0.1%. THP-1 cells were plated at 5000 cells/well in the 384-well plates and incubated at 37° C. for 2 h. 500 ng/mL of LPS was added after 2 hours and cells were incubated for another 22 hours at 37° C. Plates were spun in a centrifuge for 1 minute at […] and a mixture of anti-IL6 XL665, and anti-IL6 Cryptate diluted in reconstitution buffer (Cisbio Inc.) was added to each well. Following incubation for 3 hrs at room temperature, Homogeneous Time-Resolved Fluorescence (HTRF) was measured using the Envision (Perkin Elmer) at 665 nm and […]. The ratio of fluorescence at 665 nm to 620 nm was used as a readout for IL6 quantification. All samples were processed in duplicate. Readings were normalized to DMSO treated cells and normalized activities were utilized for EC50 calculations using the dose-response log (inhibitor) vs. response-variable slope (four parameters) nonlinear regression feature available in GraphPad Prism 5.0 (or Dotmatics). For EC50 of >10 μM, the percent inhibition at 10 μM is provided.

EC50 [1] [nM] | EC50 (SW480 colon cancer cells) [nM] | EC50 (IL-6 (THP-1 cells)) [nM] | SMILES | inhibition at 10 µM [1] [%] | EC50 [2] [nM]
> 10000 | 6080 | 1070 | O=C(Nc1cncc(-c2ccc3[nH]nc(-c4cc5c(-c6cccs6)cccc5[nH]4)c3n2)c1)c1ccccc1 [Compound 347, N-(5-(3-(4-(Thiophen-2-yl)-1H-indol-2-yl)-1H-pyrazolo[4,3-b]pyridin-5-yl)pyridin-3-yl)benzamide] | 35.8 | 446
981 | 3110 | 530 | Fc1cccc(-c2cccc3[nH]c(-c4n[nH]c5ccc(-c6cncc(CN7CCC(F)(F)C7)c6)nc45)cc23)c1 [Compound 26, 5-(5-((3,3-Difluoropyrrolidin-1-yl)methyl)pyridin-3-yl)-3-(4-(3-fluorophenyl)-1H-indol-2-yl)-1H-pyrazolo[4,3-b]pyridine] | – | 409
640 | 728 | 17 | Cc1ncc(-c2ccc3[nH]nc(-c4cc5ccccc5[nH]4)c3n2)n1C [Compound 681, 5-(1,2-Dimethyl-1H-imidazol-5-yl)-3-(1H-indol-2-yl)-1H-pyrazolo[4,3-b] pyridine] | – | 279
2950 | 5180 | 2250 | CS(=O)(=O)NCc1cc(F)cc(-c2cccc3[nH]c(-c4n[nH]c5ccc(C6CCNCC6)nc45)cc23)c1 [Compound 789, N-(3-Fluoro-5-(2-(5-(piperidin-4-yl)-1H-pyrazolo[4,3-b]pyridin-3-yl)-1H-indol-4-yl)benzyl)methanesulfonamide] | – | 9630
4280 | 1090 | 17 | CN(C)CCOc1cncc(-c2ccc3[nH]nc(-c4cc5c(-c6cccnc6)cccc5[nH]4)c3n2)c1 [Compound 591, N,N-Dimethyl-2-((5-(3-(4-(pyridin-3-yl)-1H-indol-2-yl)-1H-pyrazolo[4,3-b]pyridin-5-yl)pyridin-3-yl)oxy)ethan-1-amine] | – | 1160
3600 | 4120 | 1420 | c1csc(-c2cccc3[nH]c(-c4n[nH]c5ccc(-c6ccncc6)nc45)cc23)c1 [Compound 354, 5-(Pyridin-4-yl)-3-(4-(thiophen-2-yl)-1H-indol-2-yl)-1H-pyrazolo[4,3-b] pyridine] | – | 1460
107 | 604 | 75 | CC(C)Nc1cncc(-c2ccc3[nH]nc(-c4cc5c(-c6cccnc6)cccc5[nH]4)c3n2)c1 [Compound 96, N-Isopropyl-5-(3-(4-(pyridin-3-yl)-1H-indol-2-yl)-1H-pyrazolo[4,3-b]pyridin-5-yl)pyridin-3-amine] | – | 214
2980 | 1840 | 244 | CN1CCN(c2cccc3[nH]c(-c4n[nH]c5ccc(-c6cncc(NC(=O)CC(C)(C)C)c6)nc45)cc23)CC1 [Compound 240, 3,3-Dimethyl-N-(5-(3-(4-(4-methylpiperazin-1-yl)-1H-indol-2-yl)-1H-pyrazolo[4,3-b]pyridin-5-yl)pyridin-3-yl)butanamide] | – | 1750
> 10000 | 9360 | 1190 | CN1CCN(c2cccc3[nH]c(-c4n[nH]c5ccc(-c6cncc(CN7CCCCC7)c6)nc45)cc23)CC1 [Compound 239, 3-(4-(4-Methylpiperazin-1l-yl)-1H-indol-2-yl)-5-(5-(piperidin-1-ylmethyl)pyridin-3-yl)-1H-pyrazolo[4,3-b]pyridine] | 5 | 4980
1020 | 6740 | 388 | Cc1ccncc1-c1ccc2[nH]nc(-c3cc4c(-c5ccc(F)cc5)cccc4[nH]3)c2n1 [Compound 33, 3-(4-(4-Fluorophenyl)-1H-indol-2-yl)-5-(4-methylpyridin-3-yl)-1H-pyrazolo [4,3-b]pyridine] | – | 1230
